Measurements from US20100099731A1, “Use of Endothelial Interrupters in the Treatment of Neurodegenerative Diseases” (Texas Tech University System, priority 2008, published 2010).
“Also recorded” adds a separate entry of the source.

Legend:
[1] = tested on: Rats; assay: Infusion of human apolipoprotein-E4 into rats; type: in vivo, rat; details: 0.6 ng/hr, i.c.v., 56 days
[2] = approved treatments for AD; cited from earlier work
[3] = In vivo cognition with acetaminophen; details: in vivo work
[4] = tested on: rat brain endothelial cells; assay: Cell viability (MTT) of brain endothelial cells challenged with menadione; details: acetaminophen pretreatment, then 25 μM menadione 2-3 h; p<0.001 vs cells without acetaminophen
Experimental: Cell viability was determined with MTT assay. Number of viable cells in untreated cells (control) was defined as 100%. Data are mean±SD of 3 separate experiments.

[5] = tested on: AD transgenic mouse APPSWE 2576; assay: Radial arm maze, AD transgenic mice treated with Sunitinib malate; type: in vivo; details: Sunitinib malate 40 mg/kg daily in diet; vs untreated AD mice receiving vehicle; p<0.05
[6] = tested on: brain-derived endothelial cells (EC150); assay: MMP-9 release from brain endothelial cells, indirect ELISA; type: cell-based; details: 0-500 nM Sunitinib malate, 4 h; p<0.001 vs cells without drug
[7] = tested on: Endothelial cells; assay: Menadione-mediated TNF-α release from endothelial cells, indirect ELISA; type: cell-based; details: 500 nM Sunitinib malate 4 h prior to (Pre), simultaneously (Co) or after (Post) 4 h menadione 25 μM
[8] = tested on: Endothelial cells; assay: Menadione-induced MMP-9 release from endothelial cells, indirect ELISA; type: cell-based
[9] = tested on: cultured brain endothelial cells; assay: TIMP expression in cultured brain endothelial cells; type: cell-based
Source text: Angiogenic proteins are expressed by brain blood vessels in AD. Data are emerging to support the idea that mediators of angiogenesis are found in the AD brain. The objective of this study is to compare the expression of the angiogenic mediator's vascular endothelial growth factor (VEGF), angiopoietin, and matrix metalloproteinases (MMPs) in the microcirculation of AD patients and age-matched controls. […] AD-derived microvessels also release higher levels of MMP-2 and MMP-9 compared to controls. […] In this regard we find high levels of the tissue inhibitor of matrix metalloproteinases-1 (TIMP-1) in AD, but not control vessels.

[10] = tested on: Rats; assay: Intracerebroventricular thrombin infusion in rats, apolipoprotein-E levels; type: in vivo, rat; details: thrombin 100 nM, 0.25 microl/hr, 28 days, i.c.v.; vs vehicle, p<0.001
Source text: Chronic thrombin exposure results in an increase in apolipoprotein-E levels. Studies have shown that individuals with both a history of traumatic brain injury and inheritance of apolipoprotein E-4 (ApoE4) allele are associated with a poor neurologic outcome and an increased risk for Alzheimer's disease. We assessed the hypothesis that thrombin released during brain injury causes an increase in apolipoprotein-E levels and such increase in the levels of apolipoprotein-E4 isoform may have amyloidogenic effects. Rats received either thrombin (100 nM, 0.25 microl/hr, 28 days) or vehicle via intracerebroventricular infusion. […] Such increase in Apolipoprotein-E4 isoform facilitates beta-amyloid deposition and cognitive deficits (Reference, item # 9).

[11] = tested on: cultured brain endothelial cells; assay: HIF1-α expression in cultured brain endothelial cells; type: cell-based
Source text: Thrombin and inflammatory proteins are elevated in Alzheimer's disease microvessels: Implications for disease pathogenesis. […] The objective of this study is to determine whether levels of neurotoxic (thrombin) and inflammatory proteins (IL-8; integrins αvβ3 and αvβ5) are altered in microvessels isolated from AD patients compared to levels in vessels obtained from non-demented age-matched controls. We also evaluate expression, in AD and control microvessels, of the transcription factor hypoxiainducible factor 1-α (HIF1-α), which regulates pro-inflammatory gene expression, and the regulation of HIF1-α expression by thrombin in cultured brain endothelial cells.

[12] = tested on: Rat neuronal cortical cell cultures; details: thrombin 100 nM or SNP 10 μM, 24 h
[13] = tested on: Rats; assay: Intracerebroventricular thrombin infusion in rats, radial eight-arm maze and neuropathology; type: in vivo, rat
Experimental: Thrombin, a mediator of neurotoxicity and memory impairment. Thrombin has been found in neuritic plaques in AD. Also, traumatic brain injury, where neurons are exposed to high thrombin levels is associated with an increased incidence of AD. Our objective was to determine the effects of thrombin administered in vivo on cognitive function and neuropathology. Rats were trained using a radial eight-arm maze and then thrombin (25 or 100 nM, […], 28 days) or vehicle was delivered via intra cerebroventricular infusion. […] Thrombin-induced changes in cognitive function and ventricular enlargement were inhibited by hirudin.

[14] = tested on: cultured brain endothelial cells; assay: IL-1β and TNFα expression in brain endothelial cells treated with TGF-β, ELISA and western blot; type: cell-based; details: vs untreated endothelial cells
Source text: Cerebrovascular TGF-β contributes to inflammation in the AD brain. TGF-β plays a central role in the response of the brain to injury and is increased in the brain in AD. In this study, we determined whether expression of TGF-β was abnormal in the microvasculature in AD and whether TGF-β affected vascular production of pro-inflammatory cytokines, IL-1β and TNFα. Results from western blot analysis and ELISA indicated a higher level of TGF-β in AD vessels compared to controls. To determine whether TGF-β affects vascular release of inflammatory factors, cultured brain endothelial cells were treated with TGF-β and levels of IL-1β and TNFα determined. […] Studies have shown that TGF-β mediated signaling is critical to controlling the “angiogenic switch”.

[15] = target: thrombin (Homo sapiens, UniProt P00734); assay: ApoE4 fragment generation by endothelial cell conditioned media, western blot; type: biochemical; details: conditioned medium incubated with apoE4 for 24 h
Experimental: Injured endothelial cells release thrombin and generate neurotoxic apolipoprotein E fragments. The objective of this study was to determine if injured brain endothelial cells could be a source of thrombin and neurotoxic apoE fragments. Brain endothelial cells were injured by oxidant and/or inflammatory stress. This was accomplished by incubating cultured endothelial cells with either, sodium nitroprusside (SNP), inflammatory cocktail (LPS, […], IL-6, IFN-γ, TNFα) or both for 24 h. The conditioned medium was then (a) analyzed for thrombin using a chromogenic thrombin activity assay, (b) incubated with apoE4 for 24 h and then analyzed by western blot for detection of apoE4 fragments, or (c) incubated with apoE4 and added to neuronal cultures for 24 h. […] This pattern was consistent with that observed using purified thrombin and was inhibited by the thrombin inhibitor hiruidin.

[16] = 100 nM thrombin, 0.25 μg/h, 28 days, intra cerebroventricular infusion
[17] = rats, thrombin intra cerebroventricular infusion

Compound: ApoE4: human apolipoprotein-E4 isoform infused i.c.v. into rats
- beta-amyloid deposition and GFAP-positive astrocytes [1]: beta-amyloid deposition and increased the number of GFAP-positive astrocytes
- spatial memory [1]: significant spatial memory deficits

Compound: CC12CC3CC(C)(C1)CC(N)(C3)C2 [Memantine]
- Side Effects [2]: Headache, constipation.

Compound: CC(=O)Nc1ccc(O)cc1 [acetaminophen, 4′-hydroxyacetanilide]
- cognition [3]: improved cognition
- cell survival (MTT) [4]: significant increase in cell survival; also recorded: Cell survival increases significantly

Compound: CCN(CC)CCNC(=O)c1c(C)[nH]c(/C=C2\C(=O)Nc3ccc(F)cc32)c1C [Sunitinib malate, Butanedioic acid, hydroxy-, (2S)-, compound with N[2-(diethylamino)ethyl]-5-[(Z)-(5-fluoro-1,2-dihydro-2-oxo-3H-indol-3-ylidine)methyl]-2,4-dimethyl-1H-pyrrole-3-carboxamide (1:1)]
- cognitive performance: total number of arm entries to complete the 8 arm radial arm maze [5]: progressively require fewer arm entries to complete an 8 arm radial arm maze; also recorded: perform significantly (p<0.05) better than AD mice not receiving the drug
- release of matrix metalloproteinase-9 (MMP-9) [6]: significantly decreased release of matrix metalloproteinase-9 (MMP-9)
- menadione-mediated release of TNF-α [7]: decreased release of both MMP-9 (FIG. 4) and TNFα; also recorded: decreased menadione-mediated release of TNF-α
- menadione-induced release of MMP-9 ([8]; 500 nM Sunitinib malate 4 h prior to (Pre), simultaneously (Co) or after (Post) 4 h menadione 25 μM): decreased release of both MMP-9; also recorded: significantly decreased release of MMP-9

Compound: thrombin
- TIMP-1 expression [9]: up regulation of TIMP-1
- apolipoprotein-E levels in hippocampus [10]: increased apolipoprotein-E levels in hippocampus
- HIF1-alpha expression [11]: increased expression of HIF1-alpha
- cyclin D1 mRNA expression [12]: increase in cyclin D1 expression
- neuronal apoptosis (nucleosome ELISA) [12]: evoke neuronal cell death
- cognitive function [13, 16]: cognitive impairments including deficits in reference memory and an increase in task latency
- neuropathology [13, 16]: enlargement of cerebral ventricles, an increased number of TUNEL-positive cells, astrogliosis, and an increase in the immunoreactivity for phosphorylated neurofilament, and apolipoprotein-E fragments

Compound: CC1=CC(=O)c2ccccc2C1=O [menadione]
- release of MMP-9 and TNFα ([8]; brain endothelial cells exposed to menadione): increased release of both MMP-9 and the inflammatory cytokine TNFα

Compound: TGF-β
- endothelial expression of IL-1β and TNFα [14]: robust endothelial expression of these factors

Compound: hirudin
- generation of apoE4 fragments (20-29 kDa) by endothelial cell conditioned media [15]: inhibited
- thrombin-induced changes in cognitive function [13, 17]: inhibited
- thrombin-induced ventricular enlargement [13, 17]: inhibited
